pEC50, pKi: −log10 of the molar value. Read-outs that look alike come from different tables or passages of the source.
Legend:
HIV-1 protease = target: T1, HIV-1 protease (Human immunodeficiency virus type 1 group M subtype B, UniProt P04585, Q495S); assay: HIV-1 Protease RET assay (Ki, resonance energy transfer); type: biochemical; conditions: Q7S mutant HIV-1 protease
T1 construct: made in house
Protocol: Ki's for the inhibitors of HIV-1 protease were determined using a resonance energy transfer (RET) assay. […] This enzyme is first partially purified as inclusion bodies from cell lysate. It is then solublized in 8M urea and passed through a Q-Sepharose column (Pharmacia) for further purification. To refold this protein, samples containing Q7S is dialyzed into 50 mM sodium phosphate pH 7.0, 50 mM NaCl, 10 mM DTT, and 10% glycerol.
The commercially available peptide substrate (Molecular Probes Cat. # H-2930) RE(EDANS)SQNYPIVQK(DABCYL)R is used to assess activity and Ki's. This peptide is cleaved quantitatively by HIV-1 Pr at the Tyr-Pro bond. The EDANS fluorophore absorbs at 340 nm and emits at 490 nm. The reaction is carried out in a 96 well plate in a total volume of 100 µL and is run for 12 minutes at 37C under steady-state conditions with 5 µM substrate and 2 nM active dimer enzyme concentration. The literature value Km for this substrate and enzyme is 103+/−8 μM (See Matayoshi, et al., “Novel Fluorogenic Substrates for Assaying Retroviral Proteases by Resonance Energy Transfer,” Science 247, 954 (1990)). The buffer for this reaction is 0.1M sodium acetate pH 4.8, 1M NaCl, 1 mM EDTA, 5 mM dithiothreitol, 10% dimethyl sulfoxide and 1 mg/ml bovine serum albumin. Inhibition curves are fit using the Morrison tight binding equation.

HIV-1 = assay: Antiviral EC50 in HIV-infected T-cell lines (CPE inhibition / susceptibility assays); type: cell-based
Protocol: T-cell lines, CEM-SS, and MT-2, and viruses HIV-1 RF and HIV-1 NL4-3 (pNL4-3) were obtained from the National Institutes of Health (AIDS Research and Reference Reagent Program, Bethesda, MD).
The ability of compounds to protect cells against HIV infection was measured by the […] dye reduction method, essentially as described (See Pauwels, R. Balzarini, J. Baba, M. Snoeck, R. Schols, D. Herdewijn, P. Desmyter, J. and De Clercq, E. 1988, “Rapid and automated tetrazolium-based colorimetric assay for the detection of anti-HIV compounds,”. J Virol. Methods., 20: 309-321 and Weislow, O. S. Kiser, R. Fine, D. L. Bader, J. Shoemaker, R. H. and Boyd, M. R. 1989. “New soluble-formazan assay for HIV-1 cytopathic effects: application to high-flux screening of synthetic and natural products for AIDS-antiviral activity”. J. Natl. Cancer Inst. 81:577-586). Subject cells were infected with test virus at an moi of 0.025 to 0.819 or mock infected with medium only and added at 2×10^4 cells per well into 96 well plates containing half-log dilutions of test compounds. Six days later, 50 μl of XTT (1 mg/ml XTT tetrazolium, […] phenazine methosulfate) was added to the wells and the plate was reincubated for four hours. Viability, as determined by the amount of XTT formazan produced, was quantified spectrophotometrically by absorbance at 450 nm. Data from CPE assays were expressed as the percent of formazan produced in compound-treated cells compared to formazan produced in wells of uninfected, compound-free cells. The fifty percent effective concentration (EC50) was calculated as the concentration of compound that effected an increase in the percentage of formazan production in infected, compound-treated cells to 50% of that produced by uninfected, compound-free cells. The 50% cytotoxicity concentration (CC50) was calculated as the concentration of compound that decreased the percentage of formazan produced in uninfected, compound-treated cells to 50% of that produced in uninfected, compound-free cells. The therapeutic index was calculated by dividing the cytotoxicity (CC50) by the antiviral activity (EC50).
Compounds were tested in phenotypic susceptibility assays at Virologic, Inc., (See Petropoulos C. J., Parkin N. T., Limoli K. L., Lie Y. S., Wrin T., Huang W., Tian H., Smith D., Winslow G. A., Capon D J, Whitcomb J M. 2000, “A novel phenotypic drug susceptibility assay for human immunodeficiency virus type 1,” Antimicrob Agents Chemother 44(4):920-928) or using the assay described here. MT-2 cells were infected with either HIV-1 NL4-3 or HIV-1 NL4-3(I84V/L90M) and incubated in the presence of serial 0.5 log dilutions of test compounds. Three days later, culture supernatants were collected and virus production, as determined by p24 ELISA, was assayed. Percent inhibition was calculated as p24 concentration in compound-treated samples as compared to infected, compound-free controls. Inhibition of viral replication is determined by measuring reduction in HIV p24 present in the culture supernatant, using a Beckman-Coulter p24 HIV-1 Ag EIA kit and following the supplied protocol. Absorbance is read on a MRX microplate reader (Dynex Technologies). The EC50 was calculated as the concentration of compound that effected a decrease in the p24 production by infected, compound-treated cells to 50% of that produced by infected, compound-free cells.

[1] = Human immunodeficiency virus 1, T-cell, read-out: EC50 (wt) (nm), wt virus

CC[C@H](C)CNC(=O)[C@H]1N(C(=O)[C@@H](O)[C@H](Cc2ccccc2)NC(=O)c2cccc(O)c2C)CC(F)(F)C1(C)C [Example D18, (S)-4,4-Difluoro-1-[(2S,3S)-2-hydroxy-3-(3-hydroxy-2-methyl-benzoylamino)-4-phenyl-butyryl]-3,3-dimethyl-pyrrolidine-2-carboxylic acid ((2S)-2-methyl-butyl)-amide]
pKi (HIV-1 protease; average, read-out: Ave. Ki): > 10.00
pEC50 (HIV-1; Human immunodeficiency virus 1, T-cell, read-out: Ave. EC50, average, unit inferred): 8.00

C=CCNC(=O)C1N(C(=O)[C@@H](O)[C@H](Cc2cccc(F)c2)NC(=O)c2cccc(O)c2C)CC(F)(F)C1(C)C (some centres unmarked) [drawing 101]
pKi (HIV-1 protease; read-out: Ki (nm)): > 10.00
pEC50 (HIV-1; [1]): 7.80

Cc1cc(O)c(C)c(C(=O)N[C@@H](Cc2ccccc2)[C@H](O)C(=O)N2CC(F)(F)C(C)(C)[C@H]2C(=O)NCC(F)(F)F)c1 [drawing 119]
pKi (HIV-1 protease; read-out: Ki (nm)): > 10.00
pEC50 (HIV-1; [1]): 7.74

Cc1c(O)cccc1C(=O)N[C@@H](Cc1cccc(F)c1)[C@H](O)C(=O)N1CC(F)(F)C(C)(C)[C@H]1C(=O)NCC(C)(C)C [drawing 136]
pKi (HIV-1 protease; read-out: Ki (nm)): > 10.00
pEC50 (HIV-1; [1]): 7.89

Cc1c(O)cccc1C(=O)N[C@@H](Cc1cccc(F)c1)[C@H](O)C(=O)N1CC(F)(F)C(C)(C)[C@H]1C(=O)NCC(C)(C)C [drawing 137]
pKi (HIV-1 protease; read-out: Ki (nm)): > 10.00
pEC50 (HIV-1; read-out: EC50 (wt) (nm), wt virus): 8.06

CCNC(=O)[C@H]1N(C(=O)[C@@H](O)[C@H](Cc2ccccc2)NC(=O)c2cc(C)cc(O)c2C)CC(F)(F)C1(C)C [drawing 141]
pKi (HIV-1 protease; read-out: Ki (nm)): > 10.00
pEC50 (HIV-1; [1]): 7.43

CC[C@H](C)CNC(=O)[C@H]1N(C(=O)[C@@H](O)[C@H](Cc2ccccc2)NC(=O)c2cccc(O)c2C)CC(F)(F)C1(C)C [drawing 143]
pKi (HIV-1 protease; read-out: Ki (nm)): > 10.00
pEC50 (HIV-1; [1]): 7.96

From patent US20050124683A1, “HIV protease inhibitors, compositions containing the same, their pharmaceutical uses and materials for their synthesis” (priority 2003, published 2005)
